Test results from US9464082B2, “Aryl and arylalkyl substituted pyrazolyl and pyrimidinyl tricyclic enones as antioxidant inflammation modulators” (AbbVie Inc., priority 2014, dated 2016).

Test system: IFNγ-Induced NO Production
Assay: Nitric Oxide Suppression Assay (Suppression of IFNγ-Induced NO Production)
Format: cell-based
Settings: RAW264.7; RAW 264.7 mouse macrophage cells; 2 hour pre-treatment with compound (3 μM to 0.3 nM, 10 point curve); 20 ng/mL interferon gamma, ~18 hour; Griess detection; n=2-3 in duplicates
Method: RAW 264.7, a mouse macrophage cell line, was obtained from American Type Culture Collection (Manassas Va.) and maintained in the log phase of growth in Dulbecco's Modified Eagle's Medium (DMEM), 10% heat inactivated fetal calf serum and 100 units/mL antibiotic-antimycotic (AA). Cells were cultured and maintained in a humidified incubator at 37° C. under 5% CO2 and 95% air. Cells were sub-cultured every 3 days by scraping and were not used beyond passage 20. All cell culture supplies were obtained from Life Technologies (Grand Island, N.Y.).
RAW 264.7 cells were plated 1 day in advance of experiment at a concentration of 80,000 cells/well onto CellBIND® 96 well plates (Corning, N.Y.) in a total volume of 100 μL. The next day, pre-treat cells with compounds (from 3 μM to 0.3 nM serially diluted in a 10 point curve) from a 10× stock by adding 10 μL per well in complete DMEM media containing 10% fetal calf serum. The plates were centrifuged for 3 minutes at 400×g at room temperature followed by 2 hour incubation at 37° C. The cells were then incubated overnight at 37° C. with 10 μL of the insult, interferon gamma (R&D Systems, Minneapolis, Minn.), from a 10× stock for a final concentration of 20 ng/mL. The plates were centrifuged for 3 minutes at 400×g at room temperature followed by ˜18 hour incubation at 37° C. The following day, transfer 50 μL cell culture supernatant from each well into a clear bottom 96 well plate and follow the instructions from Promega's Griess Detection Kit #G2930 (Madison, Wis.) which involves the addition of 50 μL of the provided sulfanilamide solution for a 5-10 minute incubation at room temperature. Next add 50 μL of the provided N-1-napthylethylenediamine dihydrochloride (NED) solution for a 5-10 minute incubation at room temperature and protected from light. If any air bubbles were introduced into the well, the plates need to be centrifuged for 5 minutes at 400×g at room temperature to avoid interference with absorbance readings. The plates were read for absorbance within 30 minutes with a filter between 520 nm and 550 nm.
For the ability of compounds to suppress the increase in nitric oxide release, the percent maximal intensity of nitric oxide detected in each well was normalized to that induced by the peak value for 20 ng/mL of interferon gamma alone and plotted against the compound concentration to calculate IC50 values and to control for plate-to-plate variability. Concentration-response data were analyzed using GraphPad Prism (San Diego, Calif.); the IC50 values were derived from a single curve fit to the mean data of n=2-3, in duplicates.
All compounds were dissolved in dimethyl sulfoxide at 10 mM stock solutions and tested at a concentration that the dimethyl sulfoxide levels never exceeded 1%.

Row | SMILES | IC50
1 | C[C@@H]1C(=O)C(C#N)=C[C@]2(c3ccccc3)c3nc(-c4ccc(C(=O)O)cc4)ncc3CC[C@@H]12 [Example 77, 4-[(6aS,7S,10aR)-9-cyano-7-methyl-8-oxo-10a-phenyl-5,6,6a,7,8,10a-hexahydrobenzo[h]quinazolin-2-yl]benzoic acid] | 15.4 nM
2 | C[C@@H]1C(=O)C(C#N)=C[C@]2(c3ccccc3)c3nc(-c4ccc(C(N)=O)cc4)ncc3CC[C@@H]12 [Example 136, 4-[(6aS,7S,10aR)-9-cyano-7-methyl-8-oxo-10a-phenyl-5,6,6a,7,8,10a-hexahydrobenzo[h]quinazolin-2-yl]benzamide] | 3.37 nM
3 | COC(=O)n1cc2c(n1)[C@@]1(c3ccccc3)C=C(C#N)C(=O)[C@@H](C)[C@@H]1CC2 [Example 32, methyl (5aS,6S,9aR)-8-cyano-6-methyl-7-oxo-9a-phenyl-4,5,5a,6,7,9a-hexahydro-2H-benzo[g]indazole-2-carboxylate] | 25.9 nM
4 | C[C@@H]1C(=O)C(C#N)=C[C@]2(c3ccccc3)c3[nH]nc(-c4ccccc4)c3CC[C@@H]12 (racemic) [Example 6, rac-(5aS,6S,9aR)-6-methyl-7-oxo-3,9a-diphenyl-4,5,5a,6,7,9a-hexahydro-1H-benzo[g]indazole-8-carbonitrile] | 37.5 nM
5 | C[C@@H]1C(=O)C(C#N)=C[C@]2(c3ccccc3)c3n[nH]c(-c4cnn(CCO)c4)c3CC[C@@H]12 [Example 117, (5aS,6S,9aR)-3-[1-(2-hydroxyethyl)-1H-pyrazol-4-yl]-6-methyl-7-oxo-9a-phenyl-4,5,5a,6,7,9a-hexahydro-2H-benzo[g]indazole-8-carbonitrile] | 17.4 nM
6 | COc1ccc([C@]23C=C(C#N)C(=O)[C@@H](C)[C@@H]2CCc2c(-c4ccc(-c5[nH]ncc5Br)cc4)nc(C)nc23)cc1 [Example 79, (6aS,7S,10aR)-4-[4-(4-bromo-1H-pyrazol-5-yl)phenyl]-10a-(4-methoxyphenyl)-2,7-dimethyl-8-oxo-5,6,6a,7,8,10a-hexahydrobenzo[h]quinazoline-9-carbonitrile] | 45.7 nM
7 | C[C@@H]1C(=O)C(C#N)=C[C@]2(c3ccccc3)c3nn(C)c(-c4cccc(-c5ccc(N(S(C)(=O)=O)S(C)(=O)=O)cc5)c4)c3CC[C@@H]12 [Example 152, N-{3′-[(5aS,6S,9aR)-8-cyano-2,6-dimethyl-7-oxo-9a-phenyl-4,5,5a,6,7,9a-hexahydro-2H-benzo[g]indazol-3-yl]biphenyl-4-yl}-N-(methylsulfonyl)methanesulfonamide] | 11.5 nM
8 | COc1nc(Cl)nc2c1CC[C@H]1[C@H](C)C(=O)C(C#N)=C[C@]21c1ccccc1 [Example 102, (6aS,7S,10aR)-2-chloro-4-methoxy-7-methyl-8-oxo-10a-phenyl-5,6,6a,7,8,10a-hexahydrobenzo[h]quinazoline-9-carbonitrile] | 3.97 nM
9 | Cc1nc(-c2cn[nH]c2)c2c(n1)[C@@]1(c3ccccc3)C=C(C#N)C(=O)[C@@H](C)[C@@H]1CC2 [Example 34, (6aS,7S,10aR)-2,7-dimethyl-8-oxo-10a-phenyl-4-(1H-pyrazol-4-yl)-5,6,6a,7,8,10a-hexahydrobenzo[h]quinazoline-9-carbonitrile] | 2.86 nM
10 | C[C@@H]1C(=O)C(C#N)=C[C@]2(c3ccccc3)c3nn(C)c(-c4cccc(-c5ccc(CNS(C)(=O)=O)cc5)c4)c3CC[C@@H]12 [Example 168, N-({3′-[(5aS,6S,9aR)-8-cyano-2,6-dimethyl-7-oxo-9a-phenyl-4,5,5a,6,7,9a-hexahydro-2H-benzo[g]indazol-3-yl]biphenyl-4-yl}methyl)methanesulfonamide] | 12.3 nM
11 | Cc1nc(-c2cccc3c(Br)n[nH]c23)c2c(n1)[C@@]1(c3ccc(F)cc3)C=C(C#N)C(=O)[C@@H](C)[C@@H]1CC2 [Example 92, (6aS,7S,10aR)-4-(3-bromo-1H-indazol-7-yl)-10a-(4-fluorophenyl)-2,7-dimethyl-8-oxo-5,6,6a,7,8,10a-hexahydrobenzo[h]quinazoline-9-carbonitrile] | 31.7 nM
12 | C[C@@H]1C(=O)C(C#N)=C[C@]2(c3ccccc3)c3nn(C(=O)c4ccccc4)cc3CC[C@@H]12 [Example 38, (5aS,6S,9aR)-2-benzoyl-6-methyl-7-oxo-9a-phenyl-4,5,5a,6,7,9a-hexahydro-2H-benzo[g]indazole-8-carbonitrile] | 75.2 nM
13 | COC(=O)c1ccc(-c2cccc(-c3nc(C)nc4c3CC[C@H]3[C@H](C)C(=O)C(C#N)=C[C@]43c3ccccc3)c2)cc1 [Example 134, methyl 3′-[(6aS,7S,10aR)-9-cyano-2,7-dimethyl-8-oxo-10a-phenyl-5,6,6a,7,8,10a-hexahydrobenzo[h]quinazolin-4-yl]biphenyl-4-carboxylate] | 6.9 nM
14 | C[C@@H]1C(=O)C(C#N)=C[C@]2(c3ccccc3)c3nn(C)c(-c4cccc(-c5ccc(N)cc5)c4)c3CC[C@@H]12 [Example 149, (5aS,6S,9aR)-3-(4′-aminobiphenyl-3-yl)-2,6-dimethyl-7-oxo-9a-phenyl-4,5,5a,6,7,9a-hexahydro-2H-benzo[g]indazole-8-carbonitrile] | 7.32 nM
15 | C[C@@H]1C(=O)C(C#N)=C[C@]2(c3ccccc3)c3n[nH]c(-c4cccc(O)c4)c3CC[C@@H]12 [Example 88, (5aS,6S,9aR)-3-(3-hydroxyphenyl)-6-methyl-7-oxo-9a-phenyl-4,5,5a,6,7,9a-hexahydro-2H-benzo[g]indazole-8-carbonitrile] | 20.1 nM
16 | C[C@@H]1C(=O)C(C#N)=C[C@]2(c3ccccc3)c3n[nH]c(-c4cnn(CC(=O)O)c4)c3CC[C@@H]12 [Example 141, {4-[(5aS,6S,9aR)-8-cyano-6-methyl-7-oxo-9a-phenyl-4,5,5a,6,7,9a-hexahydro-2H-benzo[g]indazol-3-yl]-1H-pyrazol-1-yl}acetic acid] | 4 nM
17 | Cc1nc(-c2cnn(C)c2)c2c(n1)[C@@]1(c3ccccc3)C=C(C#N)C(=O)[C@@H](C)[C@@H]1CC2 [Example 35, (6aS,7S,10aR)-2,7-dimethyl-4-(1-methyl-1H-pyrazol-4-yl)-8-oxo-10a-phenyl-5,6,6a,7,8,10a-hexahydrobenzo[h]quinazoline-9-carbonitrile] | 4.86 nM
18 | Cc1nc(-c2cnc(O)c(Br)c2)c2c(n1)[C@@]1(c3ccccc3)C=C(C#N)C(=O)[C@@H](C)[C@@H]1CC2 [Example 132, (6aS,7S,10aR)-4-(5-bromo-6-hydroxypyridin-3-yl)-2,7-dimethyl-8-oxo-10a-phenyl-5,6,6a,7,8,10a-hexahydrobenzo[h]quinazoline-9-carbonitrile] | 387 nM
19 | C[C@@H]1C(=O)C(C#N)=C[C@]2(c3ccccc3)c3nc(-c4ccc(O)cc4)ncc3CC[C@@H]12 [Example 114, (6aS,7S,10aR)-2-(4-hydroxyphenyl)-7-methyl-8-oxo-10a-phenyl-5,6,6a,7,8,10a-hexahydrobenzo[h]quinazoline-9-carbonitrile] | 5 nM
20 | Cc1nc(-c2ccc3ncccc3c2)c2c(n1)[C@@]1(c3ccccc3)C=C(C#N)C(=O)[C@@H](C)[C@@H]1CC2 [Example 45, (6aS,7S,10aR)-2,7-dimethyl-8-oxo-10a-phenyl-4-(quinolin-6-yl)-5,6,6a,7,8,10a-hexahydrobenzo[h]quinazoline-9-carbonitrile] | 106 nM
21 | Cc1nc(-c2ccc(-c3ccn[nH]3)cc2)c2c(n1)[C@@]1(c3ccc(F)cc3)C=C(C#N)C(=O)[C@@H](C)[C@@H]1CC2 [Example 83, (6aS,7S,10aR)-10a-(4-fluorophenyl)-2,7-dimethyl-8-oxo-4-[4-(1H-pyrazol-5-yl)phenyl]-5,6,6a,7,8,10a-hexahydrobenzo[h]quinazoline-9-carbonitrile] | 16.4 nM
22 | C[C@@H]1C(=O)C(C#N)=C[C@]2(c3ccccc3)c3nn(C)c(-c4ccc(-c5cncnc5)cc4)c3CC[C@@H]12 [Example 144, (5aS,6S,9aR)-2,6-dimethyl-7-oxo-9a-phenyl-3-[4-(pyrimidin-5-yl)phenyl]-4,5,5a,6,7,9a-hexahydro-2H-benzo[g]indazole-8-carbonitrile] | 18.1 nM
23 | C[C@@H]1C(=O)C(C(N)=O)=C[C@]2(Cc3ccccc3)c3nn(C)c(-c4ccccc4)c3CC[C@@H]12 (racemic) [Example 165, rac-(5aS,6S,9aR)-9a-benzyl-2,6-dimethyl-7-oxo-3-phenyl-4,5,5a,6,7,9a-hexahydro-2H-benzo[g]indazole-8-carboxamide] | 706 nM
24 | C[C@@H]1C(=O)C(C#N)=C[C@]2(c3cccc(O)c3)c3ncncc3CC[C@@H]12 [Example 137, (6aS,7S,10aR)-10a-(3-hydroxyphenyl)-7-methyl-8-oxo-5,6,6a,7,8,10a-hexahydrobenzo[h]quinazoline-9-carbonitrile] | 8.93 nM
